Results taken from US20140171424A1, “HYPERTENSION AND HYPERURICEMIA” (ARDEA BIOSCIENCES, INC., priority 2011, published 2014).
“And” between values parts separate entries of the source, which are not always exact repeats. Identical values can stand only once. Like-named read-outs stand apart in the source and are kept apart here.

Key:
OAT4 [1] = biological target: T1, OAT4 (Homo sapiens, UniProt Q9NSA0); experiment: OAT4 transport of 6-carboxyfluorescein (CF) in transfected HEK293/HEK293T cells; format: cell-based; set-up: expressed in transfected cells; conditions: for OAT4 transport activity of 6-carboxyfluorescein: CF 5 μM, drug 100 μM, 5 min incubation, OAT4-expressing HEK293 cells
T1 sequence (Q9NSA0 1-550): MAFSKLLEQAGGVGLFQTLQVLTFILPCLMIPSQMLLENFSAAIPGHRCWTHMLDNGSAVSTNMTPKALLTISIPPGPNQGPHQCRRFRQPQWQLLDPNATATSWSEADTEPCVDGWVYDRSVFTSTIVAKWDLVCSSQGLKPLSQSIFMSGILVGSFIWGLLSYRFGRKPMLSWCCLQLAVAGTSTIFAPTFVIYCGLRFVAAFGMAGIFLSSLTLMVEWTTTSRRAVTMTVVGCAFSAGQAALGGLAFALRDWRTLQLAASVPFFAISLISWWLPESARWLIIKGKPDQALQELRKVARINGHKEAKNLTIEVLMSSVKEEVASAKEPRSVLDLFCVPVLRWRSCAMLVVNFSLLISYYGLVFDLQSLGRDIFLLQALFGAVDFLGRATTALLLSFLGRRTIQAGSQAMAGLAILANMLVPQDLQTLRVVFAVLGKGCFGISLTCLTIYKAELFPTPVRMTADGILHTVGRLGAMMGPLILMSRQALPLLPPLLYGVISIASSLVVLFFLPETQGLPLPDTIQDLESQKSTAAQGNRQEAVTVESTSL
Method: (§1) For cultured cells, HEK293 cells stably expressing the transporters were produced through transfection of DNA constructs carrying the transporters, antibiotic selection, and clonal selection of clones with high transporter activity. Alternatively, cells transiently expressing the transporters were produced by reverse transfection of HEK293T cells. Transfectants were plated at high density onto poly-L-lysine coated multiwell plates and assayed 1-2 days later. Results were similar for stable and transient expressing cells.

OAT4 [2] = biological target: T1, OAT4; experiment: OAT4 urate (14C-uric acid) transport in transfected HEK293/293T cells; format: cell-based; set-up: expressed in transfected cells; conditions: for OAT4 transport activity of 14C-uric acid: UA 100 μM, drug 100 μM, 5 min incubation, OAT4-expressing HEK293 cells
Method: as §1, with “later.” for “later. Results were similar for stable and transient expressing cells.”

OAT4 [3] = biological target: T1, OAT4; conditions: cited from earlier work; for effect on OAT4 uric acid transport activity: J. Am. Soc. Nephrol. 18:430 and 18:3101, 2007
URAT1 = biological target: T2, URAT1 (Homo sapiens, UniProt Q96S37); experiment: URAT1 UA transport in 293T cells; format: cell-based; conditions: 293T cells expressing URAT1 and/or OAT4; varying concentrations
T2 construct: expressed in transfected cells; host or cells: 293T cells
T2 sequence (Q96S37 1-553): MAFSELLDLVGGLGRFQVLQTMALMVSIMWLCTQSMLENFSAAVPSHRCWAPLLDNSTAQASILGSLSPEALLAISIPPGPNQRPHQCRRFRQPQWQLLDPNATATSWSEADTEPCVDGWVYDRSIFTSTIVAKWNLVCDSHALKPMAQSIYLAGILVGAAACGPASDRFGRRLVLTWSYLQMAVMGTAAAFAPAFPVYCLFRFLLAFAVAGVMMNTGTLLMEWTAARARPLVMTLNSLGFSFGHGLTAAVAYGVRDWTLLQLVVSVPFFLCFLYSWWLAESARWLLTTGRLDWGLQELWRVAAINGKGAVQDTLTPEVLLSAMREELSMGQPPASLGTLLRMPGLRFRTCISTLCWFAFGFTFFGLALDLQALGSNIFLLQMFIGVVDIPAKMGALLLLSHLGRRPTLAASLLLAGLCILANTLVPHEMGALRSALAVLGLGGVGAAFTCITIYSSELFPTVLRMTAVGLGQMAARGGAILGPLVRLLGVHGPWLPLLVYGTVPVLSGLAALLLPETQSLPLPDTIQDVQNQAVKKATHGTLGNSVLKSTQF
Method: as §1, with “later.” for “later. Results were similar for stable and transient expressing cells.”

[4] = Clinical phase 2 study in gout patients not adequately responding to allopurinol (sUA <6 mg/dL responders); format: in vivo, human; conditions: Week 4; Lesinurad added to allopurinol regimen; patients receiving thiazide diuretic
Method: FIG. 10A represents a schematic of a clinical phase 2 study design. The study was a 4-week, double-blind, placebo-controlled clinical trial in 208 gout patients who were not adequately responding to allopurinol with serum urate (sUA)≧6 mg/dL while receiving a stable dose of allopurinol for at least 6 weeks. One of three doses of Lesinurad or matching placebo was added to the patients allopurinol regimen. The primary endpoint of the study was mean reduction in sUA at Week 4, with the key secondary endpoint the proportion of subjects with sUA <6.0 mg/dL at Week 4. A small number of patients in this trial received a thiazide diuretic during the treatment period; their response rates were compared to those patients not receiving concomitant thiazide diuretics and the results presented in FIG. 10B.

OAT4 [5] = biological target: T1, OAT4; conditions: read-out: IC50, inhibition of OAT4 uptake of 3H-estrone sulfate; cited from earlier work
OAT4 [6] = biological target: T1, OAT4; experiment: 3H-Estrone sulphate (ES) transport in 293T cells stably expressing OAT4; format: cell-based; set-up: expressed in transfected cells; conditions: 1 mM HCTZ, varying concentrations of Lesinurad
Method: as §1

O=c1[nH]c(=O)c2[nH]c(=O)[nH]c2[nH]1 [uric acid]
EC50 (OAT4 [1]; HEK293T cells transiently transfected with OAT4, CF substrate, 0, 0.5, 1, 2 nM cold uric acid, read-out: EC50 of cold uric acid as competitive substrate for OAT4 of CF): 900 µM and ~900 µM

Oc1ncnc2[nH]ncc12 [allopurinol]
OAT4 transport activity of 14C-uric acid (OAT4 [2]): do not inhibit OAT4 transport activity | OAT4 transport activity of 6-carboxyfluorescein (OAT4 [1]): do not inhibit OAT4 transport activity

Cc1cccc(Nc2ccncc2S(=O)(=O)NC(=O)NC(C)C)c1 [torasemide]
effect on OAT4 uric acid transport activity (OAT4 [3]): increase OAT4 uric acid transport activity

CCc1oc2ccccc2c1C(=O)c1cc(Br)c(O)c(Br)c1 [Benzbromarone]
IC50 (OAT4 [2]; varying amounts of drug, read-out: OAT4 IC50 (OAT4 urate transport, cpm)): 10 µM

O=C(O)CSc1nnc(Br)n1-c1ccc(C2CC2)c2ccccc12 [Lesinurad, 2-(5-bromo-4-(4-cyclopropylnaphthalen-l-yl)-4H-1,2,4-triazol-3-ylthio)acetic acid]
percent inhibition of UA transport, URAT1 (URAT1): inhibits URAT1 and OAT4 with similar potency | proportion of patients with sUA below 6 mg/dL, patients taking diuretics vs not [4]: patients receiving diuretics had responded well to Lesinurad

CCc1oc2cc(O)ccc2c1C(=O)c1cc(Br)c(O)c(Br)c1 [6-hydroxybenzbromarone]
IC50 (OAT4 [5]): 3.2 µM

NS(=O)(=O)c1cc2c(cc1Cl)NCNS2(=O)=O [Hydrochlorothiazide, 6-Chloro-1,1-dioxo-3,4-dihydro-2H-1,2,4-benzothiadiazine-7-sulfonamide]
effect on OAT4 uric acid transport activity (OAT4 [3]): increase OAT4 uric acid transport activity | increase of OAT4-mediated uric acid uptake (OAT4 [3]; one study): 2.6 fold | effect of HCTZ on Lesinurad-mediated inhibition of OAT4 ES transport (OAT4 [6]): no effect on Lesinurad-mediated inhibition of OAT4 transporter activity

O=c1[nH]c(=O)c2c[nH]nc2[nH]1 [oxypurinol]
OAT4 transport activity of 14C-uric acid (OAT4 [2]): do not inhibit OAT4 transport activity | OAT4 transport activity of 6-carboxyfluorescein (OAT4 [1]): do not inhibit OAT4 transport activity
